Publication PMC9867241, “Antioxidant and Cytotoxic Activity of New Polyphenolic Derivatives of Quinazolin-4(3H)-one: Synthesis and In Vitro Activities Evaluation” (Pharmaceutics, 2022)

How the values were obtained:
[1] = test system: normal human foreskin fibroblasts (BJ); test: Cytotoxicity, Alamar blue assay, BJ cells; assay type: cell-based; settings: for IC50: Homo sapiens, Fibroblast, 24 h exposure, Alamar blue
Excerpt: (§1) Normal human foreskin (BJ) fibroblasts and two types of cancer cells, namely A549 (lung adenocarcinoma) and LNCaP (prostate carcinoma) purchased from American Type Culture Collection (Manassas, VA, USA), were used in the experiments. Each cell line was maintained in a different culture medium, depending on the metabolic necessities of the cells. BJ cells were maintained in Dulbecco’s modified Eagle’s medium (DMEM) with low glucose. A549 cells were maintained in DMEM with high glucose […], while LNCaP cells were grown in Roswell Park Memorial Institute (RPMI) 1640 medium with high glucose (5 g/L). All media used were supplemented with 10% fetal bovine serum (FBS) and were refreshed every two days. Cells were used in experiments or subcultured when they reached 70–80% confluence.
(§2) In 100 µL in 96-well plates, a number of 30,000 LNCaP cells, 15,000 A549 cells, and 7500 normal (BJ) cells were seeded. Because the cells have different sizes and volumes, the purpose of the different seedings was to achieve a confluency of 70–80% after 24 h. All types of cells were further exposed to the synthesized compounds (5a–d and 6a–d) for 24 h, at a concentration ranging from 12.5 to 100 µg/mL. Post-exposure, the media were removed, and the cells were washed with phosphate buffer saline (PBS). Their viability was evaluated using Alamar blue (AB) assay as previously described. Briefly, the cells were incubated with a 200 µM resazurin solution for 4 h. Using a Synergy 2 multi-mode microplate reader, we measured the fluorescence. The measurement was performed at λexcitation = 530/25 nm; λemission = 590/35 nm. We conducted the experiments using three biological replicates, each one including 6 technical replicates. As negative controls (NC), cells exposed to culture medium containing 0.2% DMSO were used. Compared to the NC (100%), the results were expressed as relative values. We used IC50 values for the potency evaluation, and calculated them for each cell line, using the dose-effect curves obtained by fitting the experimental data with a 4-parameter logistic curve.
(§3) Mean values ± standard deviation (SD) values of at least three biological replicates were used to calculate experimental data. One-way analysis of variance (ANOVA) with a post hoc Holm–Sidak test was used to statistically examine the data. Using SigmaPlot 11.0 software (Systat, Software Inc., Chicago, IL, USA), we performed the graphical display and data analysis. From a statistical point of view, the results were considered different, at values of p < 0.05.

[2] = test system: A549 (lung adenocarcinoma) cells; test: Cytotoxicity, Alamar blue assay, A549 cells; assay type: cell-based; settings: Homo sapiens, 24 h exposure
Excerpt: as §1, §2, §3

[3] = Ferric reducing antioxidant potential (FRAP) assay; design: concentration or dose not given beside the values; settings: for FRAP, % of Activity of Trolox: relative to Trolox; for FRAP, % of Activity of Ascorbic Acid: relative to ascorbic acid
Description: In the ferric reducing antioxidant potential (FRAP) assay, in comparison with a blank sample prepared from DMSO mixed with FRAP reagent, the absorbance of the solutions was measured at λ = 593 nm. The compounds were tested according to a modified method proposed initially by Benzie and Strain [31]. Using Equation (4), we calculated the reducing antioxidant potential of 5a–d and 6a–d as a percentage of the activity of the reference compounds:(4) % of control activity=sample absorbance/reference absorbance×100
Ferrous ions resulting from the reduction of ferric ions in the presence of an antioxidant compound form a blue-colored complex (Fe^2+-TPTZ) at pH = 3.6 with tripyridyltriazine (2,4,6-tris(2-pyridyl)-s-triazine). The intensity of the blue complex formed is proportional to the number of ferrous ions. Compounds 5a, 5c and 5d expressed a good electron donation capacity.

[4] = NO˙ radical scavenging assay (Griess reaction); settings: PBS pH 7.4, sodium nitroprusside
Description: The scavenging of the NO˙ radical was performed by applying previously reported protocols. The in vitro protocol describes the decomposition of sodium nitroprusside in phosphate buffered saline (PBS) at pH = 7.4. The NO˙ radicals would be involved in a Griess reaction if they were not captured by the tested compounds. This reaction results from the formation of an azo dye, with maximum absorption at 546 nm. This azo dye is formed from sulfanilic acid and naphthyl ethylenediamine dichloride.

[5] = test system: LNCaP (prostate carcinoma) cells; test: Cytotoxicity, Alamar blue assay, LNCaP cells; assay type: cell-based; settings: Homo sapiens, 24 h exposure
Excerpt: as §1, §2, §3

[6] = Reducing power (RP) assay; design: concentration or dose not given beside the values; settings: for RP, % of Activity of Trolox: relative to Trolox; for RP, % of Activity of Ascorbic Acid: relative to ascorbic acid
Description: Herein, the iron (III) is not free in the solution as it was in the FRAP assay and is complexed by cyanide ions. The evaluation of the reducing power (RP) was performed at a pH closer to neutral (pH = 6.6); this is different from the FRAP test, which is performed in an acidic environment. Against a blank sample, the absorbances were measured at λ = 700 nm. The followed protocol was based on the adaptation of previously reported protocols and was previously reported by our group. Using Equation (4), we calculated the reducing power of the 5a–d and 6a–d compounds as a percentage of the reference compounds activity.
The evaluated compounds can reduce ferricyanide to ferrocyanide, in the presence of ferric ions, resulting in the Perl’s Prussian which gives blue. The higher the percentage of reducing power, the higher was the absorbance that was measured due to a higher amount of colored complex resulting from the reaction.

[7] = Molecular properties computed with SwissADME; settings: ratio of computed water solubilities
Excerpt: In order to obtain preliminary information regarding molecular properties which could influence the pharmacokinetics of the compounds, we obtained them using SwissADME [44]. The evaluated molecular properties were the topological polar surface area (TPSA), octanol–water partition coefficient expressed as Moriguchi’s LogP [46], water solubility and violations of the Lipinski’s rule of five.

Compound | IC50 [1] [µg/mL] | IC50 [2] [µg/mL] | FRAP, % of Activity of Trolox [3] [%] | FRAP, % of Activity of Ascorbic Acid [3] [%] | % of NO˙ Scavenged [4] [%] | IC50 [5] [µg/mL] | RP, % of Activity of Trolox [6] [%] | RP, % of Activity of Ascorbic Acid [6] [%] | decrease of cellular viability in BJ cells ([1]; highest concentration tested, 24 h) | times more soluble in water than 6b [7] [times]
C=CCn1c(SCC(=O)NN=Cc2ccc(O)c(O)c2O)nc2ccccc2c1=O [Compound 5a, 2-((3-Allyl-4-oxo-3,4-dihydroquinazolin-2-yl)thio)-N’-(2,3,4-trihydroxybenzylidene)acetohydrazide] | > 100 | 30.9 | 98.88 | 86.18 | 38.39 | 45.6 | 92.09 | 63.20 |  | 
O=C(CSc1nc2ccccc2c(=O)n1Cc1ccccc1)NN=Cc1ccc(O)c(O)c1O [Compound 5b, 2-((3-Benzyl-4-oxo-3,4-dihydroquinazolin-2-yl)thio)-N’-(2,3,4-trihydroxybenzylidene)acetohydrazide] | > 100 | 69.5 | 76.93 | 67.05 | 36.75 | 70 | 85.68 | 58.80 |  | 
CCn1c(SCC(=O)NN=Cc2ccc(O)c(O)c2O)nc2ccccc2c1=O [Compound 5c, 2-((3-Ethyl-4-oxo-3,4-dihydroquinazolin-2-yl)thio)-N’-(2,3,4-trihydroxybenzylidene)acetohydrazide] | > 100 | 49.1 | 95.70 | 83.40 | 43.21 | 35.9 | 72.75 | 49.93 | approximately 40% | 24
CC(=NNC(=O)CSc1nc2ccccc2c(=O)n1Cc1ccccc1)c1ccc(O)cc1O [Compound 6b, 2-((3-Benzyl-4-oxo-3,4-dihydroquinazolin-2-yl)thio)-N’-(1-(2,4-dihydroxyphenyl)ethylidene)acetohydrazide] | > 100 | 42.2 | 21.24 | 18.51 | 33.31 | 30.4 | 29.01 | 19.91 |  | 
CCn1c(SCC(=O)NN=C(C)c2ccc(O)cc2O)nc2ccccc2c1=O [Compound 6c, N’-(1-(2,4-dihydroxyphenyl)ethylidene)-2-((3-ethyl-4-oxo-3,4-dihydroquinazolin-2-yl)thio)acetohydrazide] | > 100 | > 100 | 29.65 | 25.85 | 30.62 | > 100 | 28.98 | 19.89 |  | 
CCCCn1c(SCC(=O)NN=Cc2ccc(O)c(O)c2O)nc2ccccc2c1=O [Compound 5d, 2-((3-Butyl-4-oxo-3,4-dihydroquinazolin-2-yl)thio)-N’-(2,3,4-trihydroxybenzylidene)acetohydrazide] | > 100 | 42.1 | 92.71 | 80.80 | 35.14 | 56.8 | 72.18 | 49.54 |  | 
CCCCn1c(SCC(=O)NN=C(C)c2ccc(O)cc2O)nc2ccccc2c1=O [Compound 6d, 2-((3-butyl-4-oxo-3,4-dihydroquinazolin-2-yl)thio)-N’-(1-(2,4-dihydroxyphenyl)ethylidene)acetohydrazide] | > 100 | 32.4 | 27.95 | 24.36 | 30.71 | 24.3 | 24.53 | 16.84 |  | 
C=CCn1c(SCC(=O)NN=C(C)c2ccc(O)cc2O)nc2ccccc2c1=O [Compound 6a, 2-((3-Allyl-4-oxo-3,4-dihydroquinazolin-2-yl)thio)-N’-(1-(2,4-dihydroxyphenyl)ethylidene)acetohydrazide] | > 100 | 35.7 | 26.17 | 22.81 | 31.82 | 43.4 | 30.73 | 21.09 |  | 
